Measurements from patent US20030170643A1, “Regulation of apoB treatment and drug screening for cardiovascular and metabolic disorders or syndromes” (priority 1999, published 2003).

Columns and labels:
rat primary hepatocytes = experiment: Secretion of newly synthesized ([35S]methionine-labeled) VLDL-apoproteins by rat primary hepatocytes incubated with fatty acid/BSA complexes; assay type: cell-based; settings: fatty acid/BSA complexes (0.8 mM FA), VLDL fraction
Protocol: Cells were plated at a density of 2×10^6 cells/ml on 60-mm culture dishes (previously coated with poly-D-lysine) in modified M199 medium (M199, 1% fetal bovine serum [FBS], 1 mM nicotinamide, 0.1 nM insulin, 3 mg/ml choline, 1.1% L-glutamine, 1% BSA). After a four-hour attachment period, the medium was changed (modified M199 identical to the above except BSA was omitted and the concentration of FBS was raised to 10%). The next morning, cells were washed in serum-free medium three times, the experimental media added, and the cells incubated at 37° C. for 4-6 hours. The experimental medium consisted of serum-free RPMI containing the appropriate isotopes (see below) and fatty acids (FA) present at a final concentration of 0.8 mM complexed to BSA (FA:BSA molar ratio=5:1). The fatty acids used were oleic (OA), EPA, and DHA. Control medium was identical, except that BSA (0.16 mM) without fatty acids was present. For metabolic labeling of proteins, [^35S]methionine (70 uCi/ml) was included in the experimental media.
Following the 4-6 hour incubation period, the cell monolayer was washed, then solubilized in 0.1 M NaOH, and the cell protein determined by the Lowry method (Lowry, O. H., Rosebrough, N. J., Farr, A. L., and Randall, R. J. (1951) J Biol Chem 193, 265-75). Each 60 mm dish contained approximately 1-1.5 mg of cell protein. The secreted apoproteins were isolated from the medium either by ultracentrifugation or immunoprecipitation. To isolate the d<1.006 (VLDL) and 1.006<d<1.063 (IDL and LDL) g/ml density classes by centrifugation, sequential 20 hour runs at 48,000 rpm in a 50 Ti Beckman rotor at 4° C. were performed. After the first run at d=1.006, the upper VLDL layer was harvested and the density of the infranatant adjusted to 1.066 g/ml with solid KBr. After being overlaid with a KBr solution of density 1.063, the adjusted infranatant was re-centrifuged as before to isolate the IDL and LDL fractions. In some experiments, the HDL fraction (1.063<d<1.21) was isolated by sequential density centrifugation. Lipoprotein fractions were then dialyzed against 0.9% NaCl containing 10 mM unlabeled methionine, 0.2 mM PMSF, and 2 mM EDTA. Dialyzed lipoproteins were delipidated using 9 volumes of 100% isopropanol. Apoproteins were then collected by centrifugation in a Sorval HB-4 rotor at 10,000 rpm and 4° C. for 20 min, and dissolved in buffer (0.01 M phosphate, pH 7,1 % SDS, 10% glycerol), in preparation for electrophoresis.
To immunoprecipitate apoB or apoE from unfractionated conditioned medium, monospecific rabbit antiserum to rat apoB or apoE was used. Briefly, an aliquot of the medium was mixed with an equal volume of diluted antiserum (1:100 in PBS and 1% BSA) and incubated overnight at 4° C. Staph A was added in the form of immunoprecipitin, and the resultant precipitate containing the immune complexes was washed extensively, the staph A cells removed, and the isolated apoprotein dissolved in gel sample buffer (0.0625M tris/Cl, pH 6.8, 20% glycerol, 2% SDS). Electrophoretic separation of apoVLDL, apoIDL/LDL, and immunoprecipitates was accomplished using 3.5% acrylamide-18% glycerol gels as described (Maguire, G. F., Lee, M., and Connelly, P. W. (1989) J Lipid Res 30, 757-61). An aliquot of each sample was taken for scintillation counting, so that total radioactivity applied to each lane could be determined. Also, protein size standards were included in each gel.
After electrophoresis, the gels were stained, fixed, soaked in Enhance fluor solution, and dried following protocols supplied by the manufacturer. Dried gels were then exposed to X-ray film at −70° C. and signals on the resulting fluorograms were typically quantified by densitometry or phosphorimaging. Using the total radioactivity applied to each lane of the gel and the relative signal intensity of each band in that lane, the radioactivity associated with each apoprotein species was calculated. […]

rat hepatoma cells = experiment: TBARS assay of ROS in cell lysates of rat hepatoma cells; assay type: cell-based; settings: fatty acid alone
Method in brief: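 Rat hepatoma cells pre-incubated with DHA alone or DHA plus co-treatments (iron chelator DFX or lipid antioxidants), pulse-labelled 15 min with radiolabelled Met/Cys then chased in unlabelled medium. ROS in cell lysates at end of chase measured by standard TBARS assay, compared against BSA control.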

SMILES: CCCCCCCC/C=C\CCCCCCCC(=O)O [OA, oleic acid]
- secretion of newly synthesized VLDL-ApoB48, percentage of secretion observed with BSA alone (rat primary hepatocytes): 132 ± 11 percentage
- secretion of newly synthesized VLDL-ApoB100, percentage of secretion observed with BSA alone (rat primary hepatocytes): 96 ± 4 percentage
- secretion of newly synthesized VLDL-ApoE, percentage of secretion observed with BSA alone (rat primary hepatocytes): 84 ± 3 percentage
- reactive oxygen species (ROS), TBARS assay, fatty acid compared to BSA (rat hepatoma cells): does not increase
